US6838249B2, “Neuroblastoma cell lines expressing the α2δ subunit of calcium channels and methods therefore” (priority 2001, dated 2005)
Where two headings read alike, the source gives them in different places.

Tests used:
[1] = test system: α2δ subunit of calcium channels; details: 10 nM [^3H]GBP; for Ki: one-site binding model
IMR32 cells = experiment: Differentiation of IMR32 cells with BrdU, density of [^3H]GBP binding sites; type: cell-based, human; details: 10 μM BrdU for 10 to 12 days
Description: IMR32 cells, SK-N-MC cells and NG 108 cells as well as cells treated in culture with 10 μM of BrdU for 10 to 12 days were used. Cells were harvested and homogenates were made in HEPES/KOH buffer, pH 7.4. The homogenates were centrifuged for 15 min at 1000×g, and the supernatants were centrifuged at 40000×g for 15 min to obtain cell membranes.

| Ki ([1]; read-out: Ki (nM) BrdU, differentiated (BrdU) IMR32 cell membranes) [nM] | Ki ([1]; read-out: Ki (nM) Control, undifferentiated (Control) IMR32 cell membranes) [nM] | SMILES | inhibition of [^3H]GBP binding to IMR32 cell membranes ([1]; varying concentrations (FIG. 3)) | expression of [^3H]GBP binding sites (IMR32 cells) |
| --- | --- | --- | --- | --- |
| 30 | 39 | CSCC[C@H](N)C(=O)O [L-methionine] | dose-dependently inhibited |  |
|  |  | O=c1[nH]c(=O)n([C@H]2C[C@H](O)[C@@H](CO)O2)cc1Br [BrdU, 5-Bromo-2′-deoxyuridine] |  | increased |
